Results: patent US7329653B2, “Cyclohexylphenyl vasopressin agonists” (Wyeth, priority 2001, dated 2008)

Experiments:
vasopressin V2 receptors = biological target: T1, vasopressin V2 receptors (Rattus norvegicus, UniProt Q00788); test: Vasopressin V2 agonist effects in normal conscious water-loaded rats; assay type: in vivo; settings: vs control; oral dose of 10 mg/Kg; urine collected for four hours; Sprague-Dawley (CD) rats
T1 construct: Male or female normotensive Sprague-Dawley rats; tissue Charles River Laboratories, Inc; host or cells: whole animal (Sprague-Dawley rat; kidney collecting ducts per the background)
Excerpt: Vasopressin V2 Agonist Effects of Test Compounds in Normal Conscious Water-Loaded Rats
Male or female normotensive Sprague-Dawley rats (Charles River Laboratories, Inc., Kingston, N.Y.) of 350-500 g body weight were supplied with standard rodent diet (Purina Rodent Lab. Chow 5001) and water ad libitum. On the day of test, rats were placed individually into metabolic cages equipped with devices to separate the feces from the urine and containers for collection of urine. A test compound or a reference agent was given at an oral dose of 10 mg/Kg in a volume of 10 mL/Kg. The vehicle used was 2.5% preboiled corn starch in 20% dimethylsulfoxide (DMSO). Thirty minutes after dosing the test compound, rats were gavaged with water at 30 mL/Kg into the stomach using a feeding needle. During the test, rats were not provided with water or food. Urine was collected for four hours after dosing of the test compound. At the end of four hours, urine volume was measured. Urinary osmolality was determined using a Fiske One-Ten Osmometer (Fiske Associates, Norwood, Mass., 02062) or an Advanced CRYOMATIC Osmometer, Model 3C2 (Advanced Instruments, Norwood, Mass.). Determinations of Na^+, K^+ and Cl^− ion were carried out using ion specific electrodes in a Beckman SYNCHRON EL-ISE Electrolyte System analyzer. The urinary osmolality should increase proportionally. In the screening test, two rats were used for each compound. If the difference in the urine volume of the two rats was greater than 50%, a third rat was used.

T1 sequence (Q00788 whole entry): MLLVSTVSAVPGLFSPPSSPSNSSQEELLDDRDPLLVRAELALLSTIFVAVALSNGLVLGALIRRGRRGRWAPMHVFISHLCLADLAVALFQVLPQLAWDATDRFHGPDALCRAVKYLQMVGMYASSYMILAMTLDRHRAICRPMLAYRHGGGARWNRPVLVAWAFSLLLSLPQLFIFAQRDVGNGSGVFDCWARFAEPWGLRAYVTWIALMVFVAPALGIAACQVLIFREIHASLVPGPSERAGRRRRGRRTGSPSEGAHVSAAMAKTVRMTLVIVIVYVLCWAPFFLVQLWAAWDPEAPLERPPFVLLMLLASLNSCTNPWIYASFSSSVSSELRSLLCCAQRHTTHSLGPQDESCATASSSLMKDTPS

melting point [°C]	Urinary Osmolality (% increase) (vasopressin V2 receptors)	Urine Volume (% decrease) (vasopressin V2 receptors)	Compound
127 to 129	232	61	O=C(c1ccc(C2CCCCC2)cc1)N1Cc2cccn2Cc2ccccc21 [Example 1, 10-(4-Cyclohexyl-benzoyl)-10,11-dihydro-5H-pyrrolo[2,1-c][1,4]benzodiazepine]
230 to 233	51	48	O=C(c1ccc(C2CCCCC2)cc1)N1Cc2cccnc2Nc2ccccc21 [Example 2, (4-Cyclohexyl-phenyl)-(5,11-dihydro-pyrido[2,3-b][1,5]benzodiazepin-6-yl)-methanone]
–	129	51	CN1c2ccccc2N(C(=O)c2ccc(C3CCCCC3)cc2)Cc2cccnc21 [Example 3, (4-Cyclohexyl-phenyl)-(5,11-dihydro-11-methyl-5H-pyrido[2,3-b][1,5]benzodiazepin-6-yl)-methanone]
–	132	64	CCN1c2ccccc2N(C(=O)c2ccc(C3CCCCC3)cc2)Cc2cccnc21 [Example 4, (4-Cyclohexyl-phenyl)-(5,11-dihydro-11-ethyl-5H-pyrido[2,3-b][1,5]benzodiazepin-6-yl)-methanone]
175 to 176	–	–	O=C(c1ccc(C2CCCCC2)cc1)N1Cc2ccccc2Nc2ccccc21 [Example 5, (4-Cyclohexyl-phenyl)-(5,11-dihydro-10H-dibenzo[b,e][1,4]diazepin-10-yl)methanone]
111 to 112	–	–	CN1c2ccccc2CN(C(=O)c2ccc(C3CCCCC3)cc2)c2ccccc21 [Example 6, (4-Cyclohexyl-phenyl)-(5,11-dihydro-5-methyl-10H-dibenzo[b,e][1,4]diazepin-10-yl)-methanone]
150 to 152	–	–	O=C(c1ccc(C2CCCCC2)cc1)N1Cc2cccn2Cc2ncccc21 [Example 7, (4-Cyclohexyl-phenyl)-(4H,10H-3a,5,9-triaza-benzo[f]azulen-9-yl)-methanone]
145 to 148	–	–	O=C(c1ccc(C2CCCCC2)cc1)N1CCCCc2sccc21 [Example 8, (4-Cyclohexyl-phenyl)-(5,6,7,8-tetrahydro-thieno[3,2-b]azepin-4-yl)-methanone]
